Experimental findings from ChEMBL document CHEMBL3351459, “Present status of quinoxaline motifs: excellent pathfinders in therapeutic medicine” (Eur J Med Chem, 2014) are described below.

Values after ≈ are worked out from the molar mass of the structure shown.

Test [1] has as its system Mycobacterium tuberculosis. In words: Antimycobacterial activity against rifampicin-resistant Mycobacterium tuberculosis. The test is classed as functional.
For test [2], the system named is Mycobacterium tuberculosis. As to the kind of experiment: Antimycobacterial activity against isoniazid-resistant Mycobacterium tuberculosis. The test is classed as functional.

Usually MIC stands for the lowest concentration found to suppress growth. A low value points to inhibition by little substance. Turning to `CC(=O)c1c(C)[n+]([O-])c2ccc(Cl)cc2[n+]1[O-]`, the MIC in test [1] was not above 0.39 µg/mL; in test [2], 1.56 µg/mL (≈ 6.17 µM).
